Structures are written as SMILES. pIC50: −log10 of the molar value.

Assay type in all cases: cell-based
For one assay, the target named is T1, Ba/F3 BCR-ABL1 T315I (Homo sapiens, UniProt P00519+P11274, T315I).
T1 construct: BCR (N-terminal fusion partner of the oncoprotein); expressed in transfected cells; host or cells: Ba/F3 (lentiviral transduction, monoclonal line)
Kind of assay: Cell growth inhibitory activity assay (CellTiter-Glo), Ba/F3 BCR-ABL1 T315I cells. As to conditions: 72 h, CTG cell viability. The essentials:
(§1)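 Ba/F3 lines stably transduced by lentivirus with WT or mutant BCR-ABL1, alongside untransduced parental Ba/F3, were seeded and incubated overnight at 37 °C, 5% CO2, then exposed to serially diluted compound for 72 h. Viability was read as ATP by CellTiter-Glo luminescence against a day-of-dosing T0 plate; IC50 from four-parameter nonlinear fit.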
(In ATP-based viability assays light output follows the ATP content of the culture.)

In a further assay the target is T2, Ba/F3 BCR-ABL1 WT (Homo sapiens, UniProt P00519+P11274).
T2 construct: BCR (N-terminal fusion partner of the oncoprotein); expressed in transfected cells; host or cells: Ba/F3 (lentiviral transduction, monoclonal line)
Kind of assay: Cell growth inhibitory activity assay (CellTiter-Glo), Ba/F3 BCR-ABL1 WT cells. As to conditions: 72 h, CTG cell viability. The essentials: as §1

The subject of the next assay is K562 cells. As to the kind of experiment: Cell growth inhibitory activity assay (CellTiter-Glo), K562 cells. As to conditions: Homo sapiens, 72 h, CTG cell viability. The essentials: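 Growth inhibition of human K562 cells, sourced from Nanjing Kebai (CBP60529), was assessed with Promega's CellTiter-Glo kit, which measures viability through ATP quantification. Log-phase cells went into the inner wells of 96-well plates, with PBS in edge wells, incubated overnight at 37 °C and 5% CO2, then exposed to serially diluted compound for 72 h.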

The test system of another assay is Ba/F3 parental cells. As to the kind of experiment: Cell growth inhibitory activity assay (CellTiter-Glo), Ba/F3 parental cells. The following applies: Mus musculus, BaF3, 72 h, CTG cell viability, read-out: IC50 Ba/F3 BCR-ABL1 Parental. The essentials:
as §1

As to `Cc1ccc(-n2cc3c(n2)-c2cc(-c4cc(C(=O)Nc5ccc(OC(F)(F)Cl)cc5)cc5nc6n(c45)[C@H](C)COC6)cnc2C3)nn1` [T-104-A, (R)-N-(4-(chlorodifluoromethoxy)phenyl)-4-methyl-6-(2-(6-methylpyridazin-3-yl)-2,4-dihydropyrazolo[3',4':3,4]cyclopenta[1,2-b]pyridin-7-yl)-3,4-dihydro-1H-benzo[4,5]imidazo[2,1-c][1,4]oxazine-8-carboxamide], the pIC50 was 7.30 to 8.30 against Ba/F3 BCR-ABL1 T315I, not below 8.30 against Ba/F3 BCR-ABL1 WT, not below 8.30 in the assay on K562 cells and less than 6.00 in the assay on Ba/F3 parental cells.
`Cc1ccc(-n2ncc3c2-c2cc(-c4cc(C(=O)Nc5ccc(OC(F)(F)Cl)cc5)cc5nc6n(c45)[C@H](C)COC6)cnc2C3)nn1` [T-104-B, (R)-N-(4-(chlorodifluoromethoxy)phenyl)-4-methyl-6-(1-(6-methylpyridazin-3-yl)-1,4-dihydropyrazolo[3',4':3,4]cyclopenta[1,2-b]pyridin-7-yl)-3,4-dihydro-1H-benzo[4,5]imidazo[2,1-c][1,4]oxazine-8-carboxamide]: the pIC50 against Ba/F3 BCR-ABL1 T315I was 7.30 to 8.30; on Ba/F3 BCR-ABL1 WT it was not below 8.30; with K562 cells, not below 8.30; with Ba/F3 parental cells, less than 6.00.
As for `C[C@@H]1COCc2nc3cc(C(=O)Nc4ccc(OC(F)(F)Cl)cc4)cc(-c4ccc5c(c4)-c4n[nH]cc4C5)c3n21` [T-108, (R)-N-(4-(chlorodifluoromethoxy)phenyl)-6-(2,4-dihydroindeno[1,2-c]pyrazol-7-yl)-4-methyl-3,4-dihydro-1H-benzo[4,5]imidazo[2,1-c][1,4]xxazine-8-carboxamide], the pIC50 on Ba/F3 BCR-ABL1 T315I was less than 6.00; against Ba/F3 BCR-ABL1 WT, not below 8.30; in the assay on K562 cells, not below 8.30; in the assay with Ba/F3 parental cells, less than 6.00.
For the molecule `C[C@@H]1COCc2nc3cc(C(=O)Nc4ccc(OC(F)(F)Cl)cc4)cc(-c4ccc5c(c4)-c4nn(-c6ncccn6)cc4C5)c3n21` [T-109], the pIC50 at Ba/F3 BCR-ABL1 T315I is not below 8.30; against Ba/F3 BCR-ABL1 WT, not below 8.30; in the assay with K562 cells it was not below 8.30; with Ba/F3 parental cells it was less than 6.00.
For the molecule `CC(C)n1cc2c(n1)-c1cc(-c3cc(C(=O)Nc4ccc(OC(F)(F)Cl)cc4)cc4nc5n(c34)[C@H](C)COC5)ccc1C2` [T-110, (R)-N-(4-(chlorodifluoromethoxy)phenyl)-6-(2-isopropyl-2,4-dihydroindeno[1,2-c]pyrazol-7-yl)-4-methyl-3,4-dihydro-1H-benzo[4,5]imidazo[2,1-c][1,4]oxazine-8-carboxamide], the pIC50 is 7.30 to 8.30 at Ba/F3 BCR-ABL1 T315I, not below 8.30 against Ba/F3 BCR-ABL1 WT, not below 8.30 in the assay on K562 cells and less than 6.00 in the assay on Ba/F3 parental cells.
`C[C@@H]1COCc2nc3cc(C(=O)Nc4ccc(OC(F)(F)Cl)cc4)cc(-c4ccc5c(c4)-c4nc(N)sc4C5)c3n21` [T-111, (R)-6-(2-amino-8H-indeno[1,2-d]thiazol-5-yl)-N-(4-(chlorodifluoromethoxy)phenyl)-4-methyl-3,4-dihydro-1H-benzo[4,5]imidazo[2,1-c][1,4]oxazine-8-carboxamide]: the pIC50 against Ba/F3 BCR-ABL1 T315I was 7.30 to 8.30; on Ba/F3 BCR-ABL1 WT, not below 8.30; in the assay with K562 cells, not below 8.30; in the assay with Ba/F3 parental cells, less than 6.00.
`CC(=O)Nc1nc2c(s1)Cc1ccc(-c3cc(C(=O)Nc4ccc(OC(F)(F)Cl)cc4)cc4nc5n(c34)[C@H](C)COC5)cc1-2` [T-112, (R)-6-(2-acetamido-8H-indeno[1,2-d]thiazol-5-yl)-N-(4-(chlorodifluoromethoxy)phenyl)-4-methyl-3,4-dihydro-1H-benzo[4,5]imidazo[2,1-c][1,4]oxazine-8-carboxamide]: the pIC50 at Ba/F3 BCR-ABL1 T315I is 7.30 to 8.30; on Ba/F3 BCR-ABL1 WT it was not below 8.30; with K562 cells it was not below 8.30; in the assay on Ba/F3 parental cells, less than 6.00.
With `C[C@@H]1COCc2nc3cc(C(=O)Nc4ccc(OC(F)(F)Cl)cc4)cc(-c4ccc5c(c4)-c4ncsc4C5)c3n21` [T-113, (R)-N-(4-(chlorodifluoromethoxy)phenyl)-6-(8H-indeno[1,2-d]thiazol-5-yl)-4-methyl-3,4-dihydro-1H-benzo[4,5]imidazo[2,1-c][1,4]oxazine-8-carboxamide], the pIC50 against Ba/F3 BCR-ABL1 T315I is 7.30 to 8.30; on Ba/F3 BCR-ABL1 WT, not below 8.30; in the assay on K562 cells, not below 8.30; with Ba/F3 parental cells it was less than 6.00.
As for `C[C@@H]1CCSc2nc3cc(C(=O)Nc4ccc(OC(F)(F)Cl)cc4)cc(-c4cnccn4)c3n21` [T-116, (R)-N-(4-(chlorodifluoromethoxy)phenyl)-4-methyl-6-(pyrazin-2-yl)-3,4-dihydro-2H-benzo[4,5]imidazo[2,1-c][1,3]thiazine-8-carboxamide], the pIC50 against Ba/F3 BCR-ABL1 T315I was 7.30 to 8.30; at Ba/F3 BCR-ABL1 WT it was not below 8.30; with K562 cells, not below 8.30; in the assay on Ba/F3 parental cells it was less than 6.00.
For `CC(C)n1cnc2cc(C(=O)Nc3ccc(OC(F)(F)Cl)cc3)cc(-c3cnc4c(c3)-c3n[nH]cc3C4)c21` [T-119, N-(4-(chlorodifluoromethoxy)phenyl)-7-(2,4-dihvdropyrazolo[3',4':3,4]cyclopenta[1,2-b]pyridin-7-yl)-1-isopropyl-1H-benzo[d]imidazole-5-carboxamide], the pIC50 is 7.30 to 8.30 at Ba/F3 BCR-ABL1 T315I, not below 8.30 on Ba/F3 BCR-ABL1 WT, not below 8.30 with K562 cells and less than 6.00 in the assay with Ba/F3 parental cells.
As to `CC(C)n1cnc2cc(C(=O)Nc3ccc(OC(F)(F)Cl)cc3)cc(-c3cnc4c(c3)-c3nn(-c5ncccn5)cc3C4)c21` [T-120, N-(4-(chlorodifluoromethoxy)phenyl)-1-isopropyl-7-(2-(pyrimidin-2-yl)-2,4-dihydropyrazolo[3',4':3,4]cyclopenta[1,2-b]pyridin-7-yl)-1H-benzo[d]imidazole-5-carboxamide], the pIC50 is not below 8.30 at Ba/F3 BCR-ABL1 T315I, not below 8.30 at Ba/F3 BCR-ABL1 WT, not below 8.30 in the assay with K562 cells and less than 6.00 in the assay with Ba/F3 parental cells.
As to `CC(C)n1cnc2cc(C(=O)Nc3ccc(OC(F)(F)Cl)cc3)cc(-c3cnc4c(c3)-c3nn(-c5ncc(F)cn5)cc3C4)c21` [T-121, N-(4-(chlorodifluoromethoxy)phenyl)-7-(2-(5-fluoropyrimidin-2-yl)-2,4-dihydropyrazolo[3',4':3,4]cyclopenta[1,2-b]pyridin-7-yl)-1-isopropyl-1H-benzo[d]imidazole-5-carboxamide], the pIC50 against Ba/F3 BCR-ABL1 T315I was not below 8.30; on Ba/F3 BCR-ABL1 WT, not below 8.30; in the assay on K562 cells it was not below 8.30; in the assay with Ba/F3 parental cells, less than 6.00.
For the molecule `CC1(C)C(=O)Nc2cc(C(=O)Nc3ccc(OC(F)(F)Cl)cc3)cc(-c3cnc4c(c3)-c3n[nH]cc3C4)c21` [T-122, N-(4-(chlorodifluoromethoxy)phenyl)-4-(2,4-dihydropyrazolo[3',4':3,4]cyclopenta[1,2-b]pyridin-7-yl)-3,3-dimethyl-2-oxoindoline-6-carboxamide], the pIC50 on Ba/F3 BCR-ABL1 T315I was 7.30 to 8.30; on Ba/F3 BCR-ABL1 WT, not below 8.30; with K562 cells, not below 8.30; in the assay with Ba/F3 parental cells, less than 6.00.
Take `CC1(C)C(=O)Nc2cc(C(=O)Nc3ccc(OC(F)(F)Cl)cc3)cc(-c3cnc4c(c3)-c3nn(-c5ncccn5)cc3C4)c21` [T-123, N-(4-(chlorodifluoromethoxy)phenyl)-3,3-dimethyl-2-oxo-4-(2-(pyrimidin-2-yl)-2,4-dihydropyrazolo[3',4':3,4]cyclopenta[1,2-b]pyridin-7-yl)indoline-6-carboxamide]: the pIC50 at Ba/F3 BCR-ABL1 T315I was not below 8.30; on Ba/F3 BCR-ABL1 WT it was not below 8.30; with K562 cells, not below 8.30; in the assay on Ba/F3 parental cells it was less than 6.00.
For `CC1(C)C(=O)Nc2cc(C(=O)Nc3ccc(OC(F)(F)Cl)cc3)cc(-c3cnc4c(c3)-c3nn(-c5ncc(F)cn5)cc3C4)c21` [T-124, N-(4-(chlorodifluoromethoxy)phenyl)-4-(2-(5-fluoropyrimidin-2-yl)-2,4-dihydropyrazolo[3',4':3,4]cyclopenta[1,2-b]pyridin-7-yl)-3,3-dimethyl-2-oxoindoline-6-carboxamide], the pIC50 is not below 8.30 against Ba/F3 BCR-ABL1 T315I, not below 8.30 against Ba/F3 BCR-ABL1 WT, not below 8.30 in the assay with K562 cells and less than 6.00 with Ba/F3 parental cells.
Regarding `O=C(Nc1ccc(OC(F)(F)Cl)cc1)c1cc2c(c(-c3cnc4c(c3)-c3n[nH]cc3C4)c1)C1(CCCCC1)C(=O)N2` [T-125, N-(4-(chlorodifluoromethoxy)phenyl)-4'-(2,4-dihydropyrazolo[3',4':3,4]cyclopenta[1,2-b]pyridin-7-yl)-2'-oxospiro[cyclohexane-1,3'-indoline]-6'-carboxamide], the pIC50 against Ba/F3 BCR-ABL1 T315I is 7.30 to 8.30; on Ba/F3 BCR-ABL1 WT, not below 8.30; in the assay with K562 cells, not below 8.30; with Ba/F3 parental cells, less than 6.00.
For the molecule `O=C(Nc1ccc(OC(F)(F)Cl)cc1)c1cc2c(c(-c3cnc4c(c3)-c3nn(-c5ncccn5)cc3C4)c1)C1(CCCCC1)C(=O)N2` [T-126, N-(4-(chlorodifluoromethoxy)phenyl)-4'-(2-(pyrimidin-2-yl)-2,4-dihydropyrazolo[3',4':3,4]cyclopenta[1,2-b]pyridin-7-yl)-2'-oxospiro[cyclohexane-1,3'-indoline]-6'-carboxamide], the pIC50 on Ba/F3 BCR-ABL1 T315I was not below 8.30; against Ba/F3 BCR-ABL1 WT it was not below 8.30; in the assay on K562 cells it was not below 8.30; in the assay with Ba/F3 parental cells, less than 6.00.

(Values after patent EP4768484A1, “HETEROCYCLIC FUSED RING COMPOUND, AND COMPOSITION AND USE THEREOF” (Shenzhen TargetRx, Inc., priority 2023, dated 2025).)
